These are literature values, as cited in patent US20080171790A1, “Fatty acids-systemic lipid solubilizers conjugates” (priority 2007, published 2008).

The conditions of this data set: after oral administration.

As to `C[C@H](CCC(=O)O)[C@H]1CC[C@H]2[C@@H]3C[C@H](O)[C@@H]4C[C@H](O)CC[C@]4(C)[C@H]3CC[C@]12C` [hyodeoxycholic acid, Hyodeoxycholic acid], the “proportion of the administered substance excreted in the urine as a glucuronide” value is “up to 84%”.
